In ChEMBL document CHEMBL1156320, “Discovery of novel (S)-alpha-phenyl-gamma-amino butanamide containing CCR5 antagonists via functionality inversion approach” (Bioorg Med Chem Lett, 2010) one finds inhibition, IC50 and C50 data, which are given here for nine compounds.

The source made the active and inactive calls. No cut-off for these calls is given here.

Holding throughout (format): functional, cell-based
The target of assay [1] is T1, C-C chemokine receptor type 5 (Homo sapiens, UniProt P51681). Kind of assay: Antagonist activity at CCR5 receptor expressed in CHO cells assessed as inhibition of RANTES-induced […]GTPgammaS binding at 300 nM. For orientation: GTPγS resists hydrolysis and so accumulates on activated G proteins.
Target sequence in this assay (P51681 whole entry, looked up): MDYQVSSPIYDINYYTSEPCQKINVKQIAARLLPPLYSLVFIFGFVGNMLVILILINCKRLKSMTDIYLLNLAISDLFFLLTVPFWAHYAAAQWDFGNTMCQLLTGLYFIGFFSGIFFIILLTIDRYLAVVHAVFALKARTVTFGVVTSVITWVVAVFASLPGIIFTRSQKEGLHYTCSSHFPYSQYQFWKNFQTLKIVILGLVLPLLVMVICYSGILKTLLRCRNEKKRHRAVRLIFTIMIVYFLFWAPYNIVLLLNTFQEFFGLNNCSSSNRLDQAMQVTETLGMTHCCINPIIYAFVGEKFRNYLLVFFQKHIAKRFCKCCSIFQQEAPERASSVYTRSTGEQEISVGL
For assay [2], the target named is T1, C-C chemokine receptor type 5. Kind of assay: Antagonist activity at CCR5 receptor expressed in CHO cells assessed as inhibition of RANTES-induced […]GTPgammaS binding.
Assay [3] shares this target. Kind of assay: Antagonist activity at CCR5 receptor expressed in CHO cells assessed as inhibition of RANTES-induced […]GTPgammaS binding at 10 uM.
Target sequence in this assay (P51681 whole entry, looked up): as above

Broadly, the inhibition is the share of the control response that was lost under treatment. For `O=C(NCc1ccc(F)cc1)[C@@H](CCN1[C@@H]2CC[C@H]1C[C@H](n1nnc3cccnc31)C2)c1ccccc1`, the inhibition in assay [1] was 1%. In general, IC50 refers to the midpoint of a concentration-inhibition curve. Take `Cc1nc2cccnc2n1[C@H]1C[C@H]2CC[C@@H](C1)N2CC[C@H](C(=O)NCc1ccc(F)cc1)c1ccccc1`: the IC50 in assay [2] came out at 14.4 nM. The inhibition in assay [1] came to 30%. For the compound `Cc1nc2cccnc2n1[C@@H]1C[C@H]2CC[C@@H](C1)N2CC[C@H](C(=O)OCc1ccc(F)cc1)c1ccccc1`, in assay [1], the inhibition came to 19%. Same read-out and setting: for `Cc1nc2cccnc2n1[C@H]1C[C@H]2CC[C@@H](C1)N2CC[C@H](C(=O)N1C(=O)OC[C@H]1Cc1ccccc1)c1ccccc1` (stereo in doubt; 1a) the value was 30%.

Turning to `Cc1nc2cccnc2n1[C@@H]1C[C@H]2CC[C@@H](C1)N2CC[C@H](CO)c1ccccc1`, the inhibition result in assay [3] was “inactive”. With `COC(=O)[C@@H](CCN1[C@@H]2CC[C@H]1C[C@H](n1nnc3cccnc31)C2)c1ccccc1`, in assay [2], the C50 is > 10 µM. As for `COC(=O)[C@@H](CCN1[C@@H]2CC[C@H]1C[C@@H](n1c(C)nc3cccnc31)C2)c1ccccc1`, in assay [2], the concentration for half-maximal inhibition (IC50) came to 112 nM. In assay [1], the inhibition is 22%.

Consider `Cc1nc2cccnc2n1[C@H]1C[C@H]2CC[C@@H](C1)N2CC[C@H](C(=O)N1C(=O)OC[C@H]1Cc1ccccc1)c1ccccc1` (stereo in doubt; 1b), for which, in assay [1], the inhibition came to 10%. With `Cc1nc2cccnc2n1[C@@H]1C[C@H]2CC[C@@H](C1)N2CC[C@H](COCc1ccc(F)cc1)c1ccccc1`, the inhibition in assay [1] is 42%.
